{"source": "patent US20120225921A1", "about": "“METHOD OF CONTROLLING PHYTOPATHOGENIC DISEASES ON TURFGRASS” (SYNGENTA CROP PROTECTION, LLC, priority 2006, published 2012)", "type_in_all_cases": "in vivo", "key": {"[1]": {"system": "Colletotrichum graminicola", "test": "Control of Colletotrichum graminicola on Annual Bluegrass/Creeping Bentgrass (Example B-3)", "details": "500 g ai/ha; application interval 21 days, three sprays; assessed 10 days after final application; Poa/Bentgrass, natural infection; vs untreated (44% diseased)", "method": "The following EC formulation was prepared: […]\nPlots of a mixture of Annual Bluegrass (Poa annua) and Creeping Bentgrass (Agrostis stolifera) naturally infected with anthracnose (Colletotrichum graminicola) were treated with quantities of formulation C which correspond to a dose shown in the table below and expressed in g ai/ha. The dose corresponding to 250 g ai/ha was sprayed four times with an interval of 14 days. The dose corresponding to 500 g ai/ha was sprayed three times with an interval of 21 days. At 23 days after the final application with the 250 g ai/ha dose, and 10 days after the final application with the 500 g ai/ha dose, disease severity was assessed visually. […] Disease control is shown as % disease control compared to untreated plots."}, "Sclerotinia homoeocarpa [2]": {"system": "Sclerotinia homoeocarpa", "test": "Control of Sclerotinia homoeocarpa on Kentucky Bluegrass (Example B-2, plot spray treatment)", "details": "500 g ai/ha, sprayed three times every 14 days, assessed 19 days after last treatment, vs untreated (58% diseased)", "method": "Plots were inoculated with Kentucky Bluegrass (Poa pratensis L.) seeds infested with Sclerotinia homoeocarpa, and a quantity of formulations A and B which corresponds to a dose shown in the table below and expressed in g/ha was sprayed on the plots. This treatment was repeated three times at an interval of 1 treatment every 14 days. 19 days after the last treatment, the disease incidence and severity was assessed visually. […] Disease control is shown as % disease control compared to untreated Kentucky Bluegrass."}, "Sclerotinia homoeocarpa [3]": {"system": "Sclerotinia homoeocarpa", "test": "Control of Sclerotinia homoeocarpa on Creeping Bentgrass (Example B-1, plot spray treatment)", "details": "500 g ai/ha, sprayed three times every 14 days, assessed 19 days after last treatment, vs untreated (60% diseased)", "method": "The following EC formulations were prepared: […]\nPlots were inoculated with Creeping Bentgrass (Agrostis palustris Huds.) seeds infested with Sclerotinia homoeocarpa, and a quantity of formulations A and B which corresponds to a dose shown in the table below and expressed in g/ha was sprayed on the plots. This treatment was repeated three times at an interval of 1 treatment every 14 days. 19 days after the last treatment, the disease incidence and severity was assessed visually. […] Disease control is shown as % disease control compared to untreated Creeping Bentgrass."}, "Rhizoctonia solani": {"system": "Rhizoctonia solani", "test": "Control of Rhizoctonia solani on Colonial Bentgrass (Example B-4)", "details": "302 g ai/ha, application interval 14 days, three sprays, assessed 21 days after final application, natural infection, vs untreated (80% diseased)", "method": "Plots of Colonial Bentgrass (Agrostis tenius Sibth.) naturally infected with brown patch (Rhizoctonia solani) were treated with quantities of formulation C which correspond to a dose shown in the table below and expressed in g ai/ha. The dose corresponding to 302 g ai/ha was sprayed three times with an interval of 14 days. The dose corresponding to 604 g ai/ha was sprayed two times with an interval of 28 days. At 21 days after the final application of both dose rates, disease severity was assessed visually. […] Disease control is shown as % disease control compared to untreated plots."}}}
{"smiles": "CC(C)C1C2CCC1c1c(NC(=O)c3cn(C)nc3C(F)F)cccc12", "note": "(racemic) [Compound IAc]", "values": [{"measurement": "% Disease Control", "setting": "[1]", "result": 92, "unit": "%"}, {"measurement": "% Disease Control", "setting": "Sclerotinia homoeocarpa [2]", "result": 88, "unit": "%"}, {"measurement": "% Disease Control", "setting": "Sclerotinia homoeocarpa [3]", "result": 93, "unit": "%"}, {"measurement": "% Disease Control", "setting": "Rhizoctonia solani", "result": 97, "unit": "%"}]}
{"smiles": "CC(C)CC(C)c1sccc1NC(=O)c1cn(C)nc1C(F)(F)F", "note": "(stereo not drawn) [Penthiopyrad, N-[2-(1,3-dimethylbutyl)-3-thienyl]-1-methyl-3-(trifluoromethyl)-1H-pyrazole-4-carboxamide, reference compound]", "values": [{"measurement": "% Disease Control", "setting": "Sclerotinia homoeocarpa [2]", "result": 21, "unit": "%"}, {"measurement": "% Disease Control", "setting": "Sclerotinia homoeocarpa [3]", "result": 57, "unit": "%"}]}
